Results: patent publication US7151105B2, “Inhibitors of Hepatitis C virus RNA-dependent RNA polymerase, and compositions and treatments using the same” (Agouron Pharmaceuticals, Inc., priority 2004, dated 2006)

Molecular target: T1, Recombinant HCV polymerase (Hepatitis C virus genotype 1b, UniProt P26663)
T1 construct: Recombinant HCV polymerase was tested for its ability to perform primer/template-directed transcription
Assay: biochemical
Conditions: inhibition of polymerase-directed transcription; 30 min at 30° C; 30 nM enzyme; cpm data in triplicate
Outline: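 Primer/template-directed RNA synthesis by 2.5 pmol HCV polymerase on poly(rC)300/biotin-dG12 with 1 μM GTP plus α-32P-GTP, in pH 7.2 Tris buffer with 10 mM MgCl2, for 30 min at 30 °C. Products were filter-captured and counted, with 1% DMSO final. IC50 was fitted from triplicate cpm; percent inhibition was reported where IC50 was impractical.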

T1 sequence (P26663 2420-3010): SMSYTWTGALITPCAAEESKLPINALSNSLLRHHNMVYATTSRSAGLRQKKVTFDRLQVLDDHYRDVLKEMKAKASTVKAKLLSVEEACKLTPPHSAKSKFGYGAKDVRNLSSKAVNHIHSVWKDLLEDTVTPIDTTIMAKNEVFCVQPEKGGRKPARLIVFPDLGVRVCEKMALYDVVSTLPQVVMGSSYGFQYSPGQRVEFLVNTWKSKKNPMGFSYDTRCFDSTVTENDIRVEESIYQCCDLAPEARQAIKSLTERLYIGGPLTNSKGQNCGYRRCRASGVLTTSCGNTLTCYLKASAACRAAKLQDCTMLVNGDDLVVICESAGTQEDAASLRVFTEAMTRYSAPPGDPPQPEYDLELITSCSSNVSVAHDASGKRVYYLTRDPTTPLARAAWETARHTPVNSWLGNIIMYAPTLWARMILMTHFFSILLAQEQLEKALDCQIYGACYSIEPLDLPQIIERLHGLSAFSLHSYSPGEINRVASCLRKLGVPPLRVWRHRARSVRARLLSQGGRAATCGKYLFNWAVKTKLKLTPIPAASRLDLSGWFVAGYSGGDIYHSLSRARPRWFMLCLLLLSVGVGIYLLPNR

Q: Which IC50 does the source give for `Cc1cc(C)n2nc(CC3=C(O)CC(CCc4ccc([C@@H](C)N)cc4)(C4CCCC4)OC3=O)nc2n1` (stereo partly drawn) [A(92), 6-(2-{4-[(1R)-1-Aminoethyl]phenyl}ethyl)-6-cyclopentyl-3-[(5,7-dimethyl[1,2,4]triazolo[1,5-a]pyrimidin-2-yl)methyl]-hydroxy-5,6-dihydro-2H-pyran-2-one] here?
A: 300 nM

Q: Which IC50 does the source give for `CCOc1cc(O)c(CC)cc1CCC1(C2CCCC2)CC(O)=C(Cc2nc3nc(C)cc(C)n3n2)C(=O)O1` (centres unmarked) [A(22), 6-Cyclopentyl-3-[(5,7-dimethyl[1,2,4]triazolo[1,5-a]pyrimidin-2-yl)methyl]-6-[2-(2-ethoxy-5-ethyl-4-hydroxyphenyl)ethyl]-4-hydroxy-5,6-dihydro-2H-pyran-2-one] here?
A: 4 nM

Q: With `CCc1cc(CCC2(C3CCCC3)CC(O)=C(Cc3nc4nc(C)cc(C)n4n3)C(=O)O2)ccn1` (single isomer, unassigned) [A(44), 6-Cyclopentyl-3-[(5,7-dimethyl[1,2,4]triazolo[1,5-a]pyrimidin-2-yl)methyl]-6-[2-(2-ethylpyridin-4-yl)ethyl]-4-hydroxy-5,6-dihydro-2H-pyran-2-one] as the compound, how does the IC50 read?
A: 7 nM

Q: Which IC50 does the source give for `C[C@@H](NS(=O)(=O)CC(F)(F)F)c1ccc(CCC2(C3CCCC3)CC(=O)CC(=O)O2)cc1` (stereo partly drawn) [A(88), N-((1R)-1-{4-[2-(2-cyclopentyl-4,6-dioxotetrahydro-2H-pyran-2-yl)ethyl]phenyl}ethyl)-2,2,2-trifluoroethanesulfonamide] here?
A: 27000 nM

Q: How did the IC50 turn out when `Cc1cc(C)n2nc(CC3=C(O)CC(CCc4ccc(S(=O)(=O)C(F)(F)F)cc4)(C4CCCC4)OC3=O)nc2n1` (centres unmarked) [A(65)] was run?
A: 250 nM

Q: Which IC50 does the source give for `CC(C)(O)c1ccc(CCC2(C3CCCC3)CC(O)=C(Cc3nc4ncc(Cl)cn4n3)C(=O)O2)cc1Cl` (centres unmarked) [B(38), 6-{2-[3-Chloro-4-(1-hydroxy-1-methylethyl)phenyl]ethyl}-3-[(6-chloro[1,2,4]triazolo[1,5-a]pyrimidin-2-yl)methyl]-6-cyclopentyl-4-hydroxy-5,6-dihydro-2H-pyran-2-one] here?
A: 67 nM

Q: Which IC50 does the source give for `COC(=O)c1ccc(CCC2(C3CCCC3)CC(O)=C(Cc3nc4nc(C)cc(C)n4n3)C(=O)O2)cc1F` (centres unmarked) [B(8), Methyl 4-(2-{2-cyclopentyl-5-[(5,7-dimethyl[1,2,4]triazolo[1,5-a]pyrimidin-2-yl)methyl]-4-hydroxy-6oxo-3,6-dihydro-2H-pyran-2-yl}ethyl)-2-fluorobenzoate] here?
A: 29 nM

Q: With `Cc1cc(C)n2nc(OC3C(=O)CC(CCc4ccc(C(C)(C)C#N)c(Cl)c4)(C4CCCC4)OC3=O)nc2n1` (centres unmarked) [B(27), 2-[2-Chloro-4-(2-{2-cyclopentyl-5-[(5,7-dimethyl[1,2,4]triazolo[1,5-a]pyrimidin-2-yl)oxy]-4,6-dioxotetrahydro-2H-pyran-2-yl}ethyl)phenyl]-2-methylpropanenitrile] as the compound, how does the IC50 read?
A: 10000 nM

Q: Which IC50 does the source give for `Cc1cc(C)n2nc(CC3=C(O)CC(CCc4cnc(C(C)(C)C#N)c(Cl)c4)(C4CCCC4)OC3=O)nc2n1` (racemic) [Example B(39), 2-[3-chloro-5-(2-{2-cyclopentyl-5-[(5,7-dimethyl[1,2,4]triazolo[1,5-a]pyrimidin-2-yl)methyl]-4-hydroxy-6-oxo-3,6-dihydro-2H-pyran-2-yl}ethyl)pyridin-2-yl]-2-methylpropanenitrile] here?
A: 12 nM

Q: How did the IC50 turn out when `CCOc1cc(O)c(CC)cc1CCC1(C2CCCC2)CC(O)=C(Cc2nc3nc(C)cc(C)n3n2)C(=O)O1` (single isomer, unassigned) [A(30), 6-Cyclopentyl-3-[(5,7-dimethyl[1,2,4]triazolo[1,5-a]pyrimidin-2-yl)methyl]-[-6–2-(2-ethoxy-5-ethyl-4-hydroxyphenyl)ethyl]-4-hydroxy-5,6-dihydro-2H-pyran-2-one] was run?
A: 4 nM

Q: How did the IC50 turn out when `CCc1cc(CCC2(C3CCCC3)CC(O)=C(Cc3nc4nc(C)cc(C)n4n3)C(=O)O2)ccn1` (single isomer, unassigned) [A(45), 6-Cyclopentyl-3-[(5,7-dimethyl[1,2,4]triazolo[1,5-a]pyrimidin-2-yl)methyl]-6-[2-(2-ethylpyridin-4-yl)ethyl]-4-hydroxy-5,6-dihydro-2H-pyran-2-one] was run?
A: 14 nM

Q: For `CCOC(=O)c1cnc2nc(CC3=C(O)CC(CCc4ccc(C(C)(C)C#N)c(Cl)c4)(C4CCCC4)OC3=O)nn2c1` (centres unmarked) [B(13), Ethyl 2-[(6-{2-[3-chloro-4-(1-cyano-1-methylethyl)phenyl]ethyl}-6-cyclopentyl-4-hydroxy-2-oxo-5,6-dihydro-2H-pyran-3-yl)methyl][1,2,4]triazolo[1,5-a]pyrimidine-6-carboxylate], which IC50 is on record?
A: 4 nM

Q: With `CCc1cc(CCC2(C3CCCC3)CC(O)=C(Cc3nc4ncc(C)cn4n3)C(=O)O2)c(OC)cn1` (centres unmarked) [A(4), 6-Cyclopentyl-6-[2-(2-ethyl-5-methoxypyridin-4-yl)ethyl]-4-hydroxy-3-[(6-methyl[1,2,4]triazolo[1,5-a]pyrimidin-2-yl)methyl]-5,6-dihydro-2H-pyran-2-one] as the compound, how does the IC50 read?
A: 7 nM

Q: `CCc1cc(CCC2(C3CCCC3)CC(O)=C(Cc3nc4nc(C)cc(C)n4n3)C(=O)O2)ccc1C(=O)NC` (centres unmarked) [A(121), 4-(2-{2-cyclopentyl-5-[(5,7-dimethyl[1,2,4]triazolo[1,5-a]pyrimidin-2-yl)methyl]-4-hydroxy-6-oxo-3,6-dihydro-2H-pyran-2-yl}ethyl)-2-ethyl-N-methylbenzamide] was tested. Which IC50 did it give?
A: 6 nM

Q: Which IC50 does the source give for `Cc1nc(CC2=C(O)CC(CCc3ccc(C(C)(C)C#N)c(Cl)c3)(C3CCCC3)OC2=O)n(C)n1` (centres unmarked) [B(22), 2-[2-Chloro-4-(2-{2-cyclopentyl-5-[(1,3-dimethyl-1H-1,2,4-triazol-5-yl)methyl]-4-hydroxy-6-oxo-3,6-dihydro-2H-pyran-2-yl}ethyl)phenyl]-2-methylpropanenitrile] here?
A: 42 nM

Q: With `CCc1cc(CCC2(C3CCCC3)CC(O)=C(Cc3nc4nc(C)cc(C)n4n3)C(=O)O2)ccc1NS(C)(=O)=O` (centres unmarked) [A(104), N-[4-(2-{2-cyclopentyl-5-[(5,7-dimethyl[1,2,4]triazolo[1,5-a]pyrimidin-2-yl)methyl]-4-hydroxy-6-oxo-3,6dihydro-2H-pyran-2-yl}ethyl)-2-ethylphenyl]methanesulfonamide] as the compound, how does the IC50 read?
A: 6 nM

Q: How did the IC50 turn out when `CCc1cc(CCC2(C3CCCC3)CC(O)=C(Cc3nc4nc(C)cc(C)n4n3)C(=O)O2)ccc1CC#N` (single isomer, unassigned; enantiomer 2) [A(117), Enantiomer 2 of [4(2-{2-Cyclopentyl-5[(5,7-dimethyl[1,2,4]triazolo[1,5-a]pyrimidin-2-yl)methyl]-4-hydroxy-6-oxo-3,6dihydro-2H-pyran-2-yl}ethyl)-2-ethylphenyl]acetonitrile] was run?
A: 5 nM

Q: Which IC50 does the source give for `Cc1cc(C)n2nc(CC3=C(O)CC(CCc4cc(CC(F)(F)F)nc(CC(F)(F)F)c4)(C4CCCC4)OC3=O)nc2n1` (single isomer, unassigned; enantiomer 2) [A(11), Enantiomer 2 of 6-{2-[2,6-Bis(2,2,2-trifluoroethyl)pyridin-4-yl]ethyl}-6-cyclopentyl-3-[(5,7-dimethyl[1,2,4]triazolo[1,5-a]pyrimidin-2-yl)methyl]-4-hydroxy-5,6-dihydro-2H-pyran-2-one] here?
A: 8 nM

Q: `CCn1nc(C)c(CC2=C(O)CC(CCc3cc(Cl)c(OC)cc3OC)(C3CCCC3)OC2=O)c1C` (centres unmarked) [B(18), 6-[2-(5-Chloro-2,4-dimethoxyphenyl)ethyl]-6-cyclopentyl-3-[(1-ethyl-3,5-dimethyl-1H-pyrazol-4-yl)methyl]-4-hydroxy-5,6-dihydro-2H-pyran-2-one] was tested. Which IC50 did it give?
A: 170 nM

Q: How did the IC50 turn out when `CCc1cc(CCC2(C3CCCC3)CC(=O)CC(=O)O2)ccc1-c1ncco1` (centres unmarked) [A(135), 6-Cyclopentyl-6-{2-[3-ethyl-4-(1,3-oxazol-2-yl)phenyl]ethyl}dihydro-2H-pyran-2,4(3H)-dione] was run?
A: 210 nM

Q: Which IC50 does the source give for `CC(C)(O)c1ccc(CCC2(C3CCCC3)CC(O)=C(Cc3nc4ncccn4n3)C(=O)O2)cc1Cl` (centres unmarked) [B(35), 6-{2-[3-Chloro-4-(1-hydroxy-1-methylethyl)phenyl]ethyl}-6-cyclopentyl-4-hydroxy-3-([1,2,4]triazolo[1,5-a]pyrimidin-2-ylmethyl)-5,6-dihydro-2H-pyran-2-one] here?
A: 10 nM

Q: `CCc1cc(CCC2(C3CCCC3)CC(=O)CC(=O)O2)ccc1OCCN(C)C(=O)OC(C)(C)C` (centres unmarked) [A(67), tert-Butyl 2-{4-[2-(2-cyclopentyl-4,6-dioxotetrahydro-2H-pyran-2-yl)ethyl]-2-ethylphenoxy}ethyl(methyl)carbamate] was tested. Which IC50 did it give?
A: 47000 nM

Q: Which IC50 does the source give for `Cc1cc(C)n2nc(CC3=C(O)CC(CCc4cc(CC(F)(F)F)nc(CC(F)(F)F)c4)(C4CCCC4)OC3=O)nc2n1` (single isomer, unassigned; enantiomer 1) [A(10), Enantiomer 1 of 6-{2-[2,6-Bis(2,2,2-trifluoroethyl)pyridin-4-yl]ethyl}-6-cyclopentyl-3-[(5,7-dimethyl[1,2,4]triazolo[1,5-a]pyrimidin-2-yl)methyl]-4-hydroxy-5,6-dihydro-2H-pyran-2-one] here?
A: 3 nM

Q: How did the IC50 turn out when `CCOc1cnc(CC)cc1CCC1(C2CCCC2)CC(O)=C(Cc2nc3nc(C)cc(C)n3n2)C(=O)O1` (centres unmarked) [A(27), 6-Cyclopentyl-3-[(5,7-dimethyl[1,2,4]triazolo[1,5-a]pyrimidin-2-yl)methyl]-6-[2-(5-ethoxy-2-ethylpyridin-4-yl)ethyl]-4-hydroxy-5,6-dihydro-2H-pyran-2-one] was run?
A: 3 nM

Q: With `CCc1cc(CCC2(C3CCCC3)CC(O)=C(Cc3nc4nc(C)cc(C)n4n3)C(=O)O2)ccc1NS(=O)(=O)CC` (centres unmarked) [A(108), N-[4-(2-{2-cyclopentyl-5-[(5,7-dimethyl[1,2,4]triazolo[1,5-a]pyrimidin-2-yl)methyl]-4-hydroxy-6-oxo-3,6-dihydro-2H-pyran-2-yl}ethyl)-2-ethylphenyl]ethanesulfonamide] as the compound, how does the IC50 read?
A: 6 nM

Q: For `CCc1cc(CCC2(C3CCCC3)CC(O)=C(Cc3nc4nc(C)cc(C)n4n3)C(=O)O2)ccc1Cn1cncn1` (centres unmarked) [A(110), 6-Cyclopentyl-3-[(5,7-dimethyl[1,2,4]triazolo[1,5-a]pyrimidin-2-yl)methyl]-6-{2-[3-ethyl-4-(1H-1,2,4-triazol-1-ylmethyl)phenyl]ethyl}-4-hydroxy-5,6-dihydro-2H-pyran-2-one], which IC50 is on record?
A: 6 nM
